According to ChEMBL document CHEMBL4765381, “Neuropeptide FF and Its Receptors: Therapeutic Applications and Ligand Development” (J Med Chem, 2020):
pEC50, pIC50, pKi: −log10 of the molar value. Values belong to the compound of their own block, whether it stands above or below them. Square brackets hold non-standard residues; d marks the D form. Peptide text beside a SMILES is read from it. * marks the point of attachment. Desaminotyrosyl = O=C(CCc1ccc(O)cc1)*; Tic = O=C(O)[C@@H]1Cc2ccccc2CN1

Experiments:
[1] = target: T1, Neuropeptide FF receptor 2 (Homo sapiens, UniProt Q9Y5X5); assay: Agonist activity at human NPFFR2 expressed in CHO cells assessed as inhibition of forskolin-induced intracellular cAMP production incubated for 5 hrs by firefly/renilla luciferase reporter assay; type: functional, cell-based
[2] = target: T1, Neuropeptide FF receptor 2; assay: Displacement of TAMRA-NPFF from human NPFFR2 expressed in CHO-K1 cells preincubated for 15 mins followed by GTPgammaS addition and measured after 15 to 120 mins by competitive binding assay; type: cell-based
[3] = target: T1, Neuropeptide FF receptor 2; assay: Antagonist activity at human NPFFR2 expressed in CHO-K1 cells assessed as reversal of agonist-induced inhibition of forskolin-stimulated cAMP accumulation incubated for 30 mins by LANCE ultra cAMP assay; type: functional, cell-based
[4] = target: T2, Neuropeptide FF receptor 1 (Homo sapiens, UniProt Q9GZQ6); assay: Antagonist activity at human NPFFR1 expressed in CHO-K1 cells assessed as reversal of agonist-induced inhibition of forskolin-stimulated cAMP accumulation incubated for 30 mins by LANCE ultra cAMP assay; type: functional, cell-based
[5] = Displacement of [ […]]Y8Famide from NPFFR in rat spinal cord membranes; type: cell membranes, Membrane
[6] = target: T1, Neuropeptide FF receptor 2; assay: Agonist activity at human NPFFR2 expressed in CHO cells assessed as stimulation of [35S]-GTPgammaS binding preincubated for 30 mins followed by [35S]-GTPgammaS stimulation and measured after 30 mins by scintillation counting method; type: functional, cell-based
[7] = target: Neuropeptide FF receptor 1 (Rattus norvegicus, UniProt Q9EP86); assay: Displacement of [125I](Tyr)NPF from rat NPFFR1 expressed in rat PC12 cells incubated for 1 hr; type: cell-based, PC-12
Mus musculus = assay: Reversal of morphine-induced analgesia in icv dosed CDF1 mouse assessed as minimum effective dose measured after 15 mins by tail-flick test; type: functional; details: 0.25 h
[8] = Displacement of [125I][Tyr1]-NPFF from NPFF receptor in rat spinal cord membranes by Cheng-Prusoff analysis; type: cell membranes, Membrane
[9] = Displacement of [125I]-1DMe from NPFF receptor in Sprague-Dawley rat dorsal horn of spinal cord incubated for 150 mins by autoradiography; type: tissue-based
[10] = target: T1, Neuropeptide FF receptor 2; details: COS-1, filed as antagonist, dose 7.5 µM, time 30.0 min
[11] = target: T2, Neuropeptide FF receptor 1; assay: Displacement of [125I]YVP from human NPFFR1 expressed in CHO cells; type: cell-based
[12] = target: T1, Neuropeptide FF receptor 2; assay: Displacement of [125I]Tyr-NPFF from human NPFFR2 expressed in green monkey Cos-1 cells; type: cell-based
[13] = Binding affinity to NPFFR in rat spinal cord; type: tissue-based

T1 sequence (Q9Y5X5 whole entry): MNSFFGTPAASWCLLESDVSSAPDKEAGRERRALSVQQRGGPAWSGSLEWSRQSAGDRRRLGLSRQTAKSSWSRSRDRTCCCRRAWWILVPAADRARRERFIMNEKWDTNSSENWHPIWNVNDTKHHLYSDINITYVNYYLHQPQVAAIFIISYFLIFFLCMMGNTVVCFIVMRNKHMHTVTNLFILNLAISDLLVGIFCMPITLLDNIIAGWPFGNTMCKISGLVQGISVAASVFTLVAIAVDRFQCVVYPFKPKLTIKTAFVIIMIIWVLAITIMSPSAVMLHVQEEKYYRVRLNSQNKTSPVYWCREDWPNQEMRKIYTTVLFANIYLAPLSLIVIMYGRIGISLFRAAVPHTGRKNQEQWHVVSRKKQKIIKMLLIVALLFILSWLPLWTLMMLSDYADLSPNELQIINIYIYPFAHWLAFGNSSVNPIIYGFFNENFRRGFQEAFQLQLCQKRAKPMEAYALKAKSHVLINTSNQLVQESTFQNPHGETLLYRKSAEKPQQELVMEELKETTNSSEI
Chain of Neuropeptide FF receptor 1 (Rattus norvegicus, UniProt Q9EP86) (Q9EP86 whole entry): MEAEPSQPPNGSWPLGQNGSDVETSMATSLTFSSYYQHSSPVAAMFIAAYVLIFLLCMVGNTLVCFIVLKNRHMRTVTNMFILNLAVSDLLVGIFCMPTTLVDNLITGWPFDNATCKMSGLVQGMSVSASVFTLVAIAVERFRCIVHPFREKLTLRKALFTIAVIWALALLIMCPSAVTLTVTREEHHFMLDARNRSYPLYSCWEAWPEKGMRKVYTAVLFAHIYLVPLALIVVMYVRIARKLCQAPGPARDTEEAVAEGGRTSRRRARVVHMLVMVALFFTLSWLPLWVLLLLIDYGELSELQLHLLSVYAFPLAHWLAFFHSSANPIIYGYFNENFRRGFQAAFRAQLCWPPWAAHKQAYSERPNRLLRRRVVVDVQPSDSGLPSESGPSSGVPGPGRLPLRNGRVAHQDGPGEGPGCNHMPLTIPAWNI
T2 sequence (Q9GZQ6 whole entry): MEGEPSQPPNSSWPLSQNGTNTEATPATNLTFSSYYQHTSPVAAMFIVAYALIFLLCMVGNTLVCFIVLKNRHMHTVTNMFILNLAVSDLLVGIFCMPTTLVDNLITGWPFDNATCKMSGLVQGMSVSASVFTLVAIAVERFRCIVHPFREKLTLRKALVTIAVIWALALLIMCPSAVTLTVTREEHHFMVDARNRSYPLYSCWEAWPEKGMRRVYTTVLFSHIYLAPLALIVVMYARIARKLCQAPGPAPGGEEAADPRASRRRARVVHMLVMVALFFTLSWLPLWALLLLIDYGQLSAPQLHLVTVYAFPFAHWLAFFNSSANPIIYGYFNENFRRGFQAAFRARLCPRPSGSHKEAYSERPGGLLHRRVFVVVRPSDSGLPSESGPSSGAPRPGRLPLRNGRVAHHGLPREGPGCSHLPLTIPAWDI

SMILES: N=C(N)NCCC[C@@H](NC(=O)C(c1ccccc1)c1ccccc1)C(=O)N[C@@H](C(N)=O)c1ccccc1
- pIC50 [3]: 6.41
- pIC50 [4]: 7.68

SMILES: CN(C)c1cccc2c(S(=O)(=O)N3CCC[C@H]3C(=O)N[C@@H](CCC(N)=O)C(=O)N[C@@H](CCCNC(=N)N)C(N)=O)cccc12 [DANSYLPQRAMIDE]
- pKi [5]: 4.89

SMILES: N=C(N)NCCC[C@H](NC(=O)[C@H](Cc1ccccc1)NC(=O)[C@@H]1CCCN1)C(=O)N1Cc2ccccc2C[C@H]1C(N)=O (H-PFR[Tic]-NH2)
- pEC50 [6]: 5.62
- pIC50 [7]: 10.00
- pKi [7]: 7.00

SMILES: CC(C)C[C@H](NC(=O)[C@@H](N)Cc1ccc(O)cc1)C(=O)N[C@@H](Cc1ccccc1)C(=O)N[C@@H](CCC(N)=O)C(=O)N1CCC[C@H]1C(=O)N[C@@H](CCC(N)=O)C(=O)N[C@@H](CCCN=C(N)N)C(=O)N[C@@H](Cc1ccccc1)C(N)=O (H-YLFQPQRF-NH2)
- MEC (Mus musculus): 8.8 nmol
- pKi [8]: 9.70

SMILES: CC(C)C[C@H](NC(=O)[C@@H](N)Cc1ccccc1)C(=O)N[C@@H](Cc1ccccc1)C(=O)N[C@@H](CCC(N)=O)C(=O)N1CCC[C@H]1C(=O)N[C@@H](CCC(N)=O)C(=O)N[C@@H](CCCN=C(N)N)C(=O)N[C@@H](Cc1ccccc1)C(N)=O
- MEC (Mus musculus): 22 nmol
- pKi [9]: 9.47

SMILES: N=C(N)NCCC[C@H](NC(=O)C12CC3CC(CC(C3)C1)C2)C(=O)N[C@@H](Cc1ccccc1)C(N)=O
- Ke [10]: 45 nM

SMILES: CC(C)C[C@H](NC(=O)[C@H](Cc1ccccc1)NC(=O)CCc1ccc(O)cc1)C(=O)N[C@@H](Cc1ccccc1)C(=O)N[C@@H](CCC(N)=O)C(=O)N1CCC[C@H]1C(=O)N[C@@H](CCC(N)=O)C(=O)N[C@@H](CCCN=C(N)N)C(N)=O (Desaminotyrosyl-FLFQPQR-NH2)
- pKi [13]: 9.70

The next lines start with results.

- pEC50 [1]: 5.65
- pKi [2]: 8.66
SMILES: COc1cc2c(c(OC)c1OC)-c1c(cc3c(c1OC)CC3)[C@@H](C(=O)Oc1ccccc1)[C@@](C)(O)[C@@H](C)C2

- pKi [11]: 7.92
- pKi [12]: 6.34
SMILES: NC(N)=NCCC[C@H](NC(=O)C(c1ccccc1)c1ccccc1)C(=O)NCc1ccc(O)cc1

- pKi [8]: 8.92
SMILES: CC(C)C[C@H](NC(=O)[C@@H](N)Cc1ccccc1)C(=O)N[C@@H](Cc1ccccc1)C(=O)N[C@@H](CCC(N)=O)C(=O)NCC(=O)N[C@@H](CCC(N)=O)C(=O)N[C@@H](CCCN=C(N)N)C(=O)N[C@@H](Cc1ccccc1)C(N)=O (H-FLFQGQRF-NH2)
- MEC (Mus musculus): 8.8 nmol
